From patent publication US5811278A, “Dipeptidyl peptidase IV from Xanthomonas maltophilia and process for producing the same” (Ajinomoto Co., Inc., priority 1995, dated 1998)
Like-named read-outs stand apart in the source and are kept apart here. Where a SMILES comes first, the peptide text is derived from it. The star is where a group is joined. βNA = c1ccc2cc(N*)ccc2c1

Tests used:
Type in all cases: biochemical
[1] = target: T1, dipeptidyl peptidase IV obtainable from Xanthomonas maltophilia (Stenotrophomonas maltophilia, UniProt P95782); experiment: biochemical
Target sequence in this assay (P95782 21-741 limits assumed): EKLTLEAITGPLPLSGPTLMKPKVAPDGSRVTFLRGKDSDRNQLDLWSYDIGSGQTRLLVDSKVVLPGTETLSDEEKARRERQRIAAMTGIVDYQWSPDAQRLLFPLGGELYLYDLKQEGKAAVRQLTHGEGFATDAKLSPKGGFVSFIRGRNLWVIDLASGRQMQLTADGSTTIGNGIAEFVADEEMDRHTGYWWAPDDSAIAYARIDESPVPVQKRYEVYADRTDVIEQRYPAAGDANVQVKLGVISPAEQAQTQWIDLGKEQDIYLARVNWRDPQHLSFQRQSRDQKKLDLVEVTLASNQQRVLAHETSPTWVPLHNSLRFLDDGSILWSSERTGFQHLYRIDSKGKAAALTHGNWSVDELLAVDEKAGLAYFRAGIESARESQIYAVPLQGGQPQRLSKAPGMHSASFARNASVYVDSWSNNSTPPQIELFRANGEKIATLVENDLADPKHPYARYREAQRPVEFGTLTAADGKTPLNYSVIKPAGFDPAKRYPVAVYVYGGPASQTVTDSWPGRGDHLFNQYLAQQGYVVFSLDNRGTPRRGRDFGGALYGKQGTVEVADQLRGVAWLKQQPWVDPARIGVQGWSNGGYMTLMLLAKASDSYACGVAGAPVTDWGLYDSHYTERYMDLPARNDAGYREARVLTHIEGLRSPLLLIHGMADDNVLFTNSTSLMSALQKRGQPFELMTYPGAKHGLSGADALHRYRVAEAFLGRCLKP

[2] = target: T1, dipeptidyl peptidase IV obtainable from Xanthomonas maltophilia; experiment: Substrate specificity for low molecular weight synthetic peptide substrates; details: for activity at 500 µM: read-out: Relative activity (%)
Procedure: In the present invention, the dipeptidyl peptidase IV activity was measured according to the method of Yoshimoto et al. (J. Biochem., 91:1899-1906 (1982)).
The used substrates are shown in Table 1, and the concentration thereof was 0.5 mM.
Using Gly-Pro-β-naphthylamide as the substrate, 0.1 ml of 5 mM Gly-Pro-β-naphthylamide and 0.1 ml of an enzyme solution were added to 0.8 ml of 20 mM Tris-HCl buffer (pH 8.0) containing 5 mM EDTA and allowed to react with each other at 37° C. for 5 minutes, the reaction was terminated by adding 0.5 ml of Fast Garnet GBC (0.1% solution prepared by dissolving it in 1M acetate buffer (pH 4.0) containing 10% Triton X-100) and then absorbance at 550 nm was measured.

[3] = target: T1, dipeptidyl peptidase IV obtainable from Xanthomonas maltophilia; experiment: Influence of metal ions on the enzyme activity; details: substrate Gly-Pro-β-naphthylamide; for Relative activity (%): metal ion 1 mM, control 100
Target sequence in this assay (P95782 21-741 limits assumed): as above

[4] = hydrolysis of the substrate by the enzyme, substrate concentration 0.5 mM

O=C(O)CN(CCN(CC(=O)O)CC(=O)O)CC(=O)O [EDTA]
activity at 5000 µM ([1]; read-out: Relative activity (%)): 100%

NCC(=O)N1CCC[C@H]1C(=O)Nc1ccc2ccccc2c1 [Gly--Pro-β-naphthylamide, Gly-Pro-β-naphthylamide] (H-Gly-Pro-βNA)
activity at 500 µM [2, 4]: 100%

C[C@H](N)C(=O)N[C@@H](C)C(=O)Nc1ccc2ccccc2c1 [Ala--Ala-β-naphthylamide] (H-Ala-Ala-βNA)
activity at 500 µM [2, 4]: 100%

Gly--Pro--Leu--Gly (GPLG; printed: Gly--Pro--Leu--Gly)
Relative activity (%) [2, 4]: 50%

O=C(O)c1cc[c]([Hg][Cl])cc1 [PCMB]
Relative activity (%) [1]: 96%

C[C@H](N)C(=O)N1CCC[C@H]1C(=O)Nc1ccc2ccccc2c1 [Ala--Pro-β-naphthy1amide] (H-Ala-Pro-βNA)
activity at 500 µM [2]: 105%

[Cl][Ni][Cl] [NiCl2]
Relative activity (%) [3]: 100%

[Cl-].[Cl-].[Zn+2] [ZnCl2]
Relative activity (%) [3]: 95%

[Cl][Hg][Cl] [HgCl2]
Inhibition of the enzyme activity by metal ion (in words) ([3]; 1 mM): inhibited by HgCl2 almost completely
Relative activity (%) [3]: 0%

Gly--Pro--Ala
Relative activity (%) [2, 4]: 40%
